Reference: patent publication US6949542B2, “Dihydro-benzo[b][1,4]diazepin-2-one derivatives” (Hoffman-La Roche Inc., priority 2002, dated 2005)

Molecular target: T1, rat mGlu2 receptor (Rattus norvegicus, UniProt P31421)
T1 construct: expressed in transfected cells; vector pcD1mGR2
Experiment: [3H]-LY354740 binding on mGlu2 transfected CHO cell membranes
Settings: inhibition of 10 nM [3H]-LY354740 binding, mGlu2 transfected CHO cell membranes, room temperature, 1 hour; read-out: Ki mGlu2

T1 sequence (P31421 19-872): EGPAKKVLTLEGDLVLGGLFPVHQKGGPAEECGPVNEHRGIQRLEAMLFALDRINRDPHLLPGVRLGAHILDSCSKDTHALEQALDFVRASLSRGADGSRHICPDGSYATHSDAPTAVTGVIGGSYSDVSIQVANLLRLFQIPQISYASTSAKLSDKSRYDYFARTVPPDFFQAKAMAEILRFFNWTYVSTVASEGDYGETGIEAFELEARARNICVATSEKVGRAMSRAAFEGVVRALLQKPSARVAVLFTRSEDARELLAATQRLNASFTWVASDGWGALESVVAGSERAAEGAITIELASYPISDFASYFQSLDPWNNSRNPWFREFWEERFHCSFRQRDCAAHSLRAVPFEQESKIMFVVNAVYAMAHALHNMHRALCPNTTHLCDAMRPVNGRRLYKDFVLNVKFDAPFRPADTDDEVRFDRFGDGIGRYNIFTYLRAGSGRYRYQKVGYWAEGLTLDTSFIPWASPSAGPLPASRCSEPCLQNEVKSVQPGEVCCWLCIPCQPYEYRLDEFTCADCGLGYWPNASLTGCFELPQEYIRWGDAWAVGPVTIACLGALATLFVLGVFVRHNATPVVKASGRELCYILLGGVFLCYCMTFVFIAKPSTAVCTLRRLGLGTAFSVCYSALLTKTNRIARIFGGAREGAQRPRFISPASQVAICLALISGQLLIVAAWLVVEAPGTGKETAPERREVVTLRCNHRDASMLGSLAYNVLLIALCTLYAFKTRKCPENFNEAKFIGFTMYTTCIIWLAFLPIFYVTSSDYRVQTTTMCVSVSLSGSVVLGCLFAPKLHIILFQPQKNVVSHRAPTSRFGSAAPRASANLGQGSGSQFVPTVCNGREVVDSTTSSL

| Ki [nM] | Compound |
| --- | --- |
| 27 | COc1cc2c(cc1C(F)(F)F)NC(=O)CC(c1cccc(-c3ccccn3)c1)=N2 [Example 42, 7-Methoxy-4-(3-pyridin-2-yl-phenyl)-8-trifluoromethyl-1,3-dihydro-benzo[b][1,4]diazepin-2-one] |
| 6 | CN(C)c1cc2c(cc1C(F)(F)F)NC(=O)CC(c1cccc(-c3ccncc3)c1)=N2 [Example 4, 7-Dimethylamino-4-(3-pyridin-4-yl-phenyl)-8-trifluoromethyl-1,3-dihydro-benzo[b][1,4]diazepin-2-one] |
| 5 | Cc1cc2c(cc1C(F)(F)F)NC(=O)CC(c1ccnc(-c3cccnc3)c1)=N2 [Example 290, 4-[2,3′]Bipyridinyl-4-yl-7-methyl-8-trifluoromethyl-1,3-dihydro-benzo[b][1,4]diazepin-2-one] |
| 2.3 | CN(C)c1cc2c(cc1C(F)(F)F)NC(=O)CC(c1cccc(-c3cccnc3)c1)=N2 [Example 3, 7-Dimethylamino-4-(3-pyridin-3-yl-phenyl)-8-trifluoromethyl-1,3-dihydro-benzo[b][1,4]diazepin-2-one] |

The remaining lines, values behind:

| Compound | Ki [nM] |
| --- | --- |
| CCc1cnc(C)cc1-c1cccc(C2=Nc3cc(C)c(Cl)cc3NC(=O)C2)c1 [Example 147, 8-Chloro-4-[3-(5-ethyl-2-methyl-pyridin-4-yl)-phenyl]-7-methyl-1,3-dihydro-benzo[b][1,4]diazepin-2-one] | 4.5 |
| Cc1cc(-c2cccc(C3=Nc4cc(C)c(C(F)(F)F)cc4NC(=O)C3)c2)nc(NCCO)n1 [Example 322, 4-{3-[2-(2-Hydroxy-ethylamino)-6-methyl-pyrimidin-4-yl]-phenyl}-7-methyl-8-trifluoromethyl-1,3-dihydro-benzo[b][1,4]diazepin-2-one] | 4 |
| Cc1cc(-c2cccc(C3=Nc4ccc(-c5ccccc5F)cc4NC(=O)C3)c2)ccn1 [Example 72, 8-(2-Fluoro-phenyl)-4-[3-(2-methyl-pyridin-4-yl)-phenyl]-1,3-dihydro-benzo[b][1,4]diazepin-2-one] | 1.8 |
| O=C1CC(c2cccc(-c3ccccn3)c2)=Nc2ccc(-n3cccc3)cc2N1 [Example 54, 4-(3-Pyridin-2-yl-phenyl)-8-pyrrol-1-yl-1,3-dihydro-benzo[b][1,4]diazepin-2-one] | 32.6 |
| O=C1CC(c2cccc(-c3cccnc3)c2)=Nc2cc(OCC(F)(F)F)ccc2N1 [Example 57, 4-(3-Pyridin-3-yl-phenyl)-7-(2,2,2-trifluoro-ethoxy)-1,3-dihydro-benzo[b][1,4]diazepin-2-one] | 6.2 |
| O=C1CC(c2cccc(-c3cccnc3)c2)=Nc2cc(Cl)c(Cl)cc2N1 [Example 1, 7,8-Dichloro-4-(3-pyridin-3-yl-phenyl)-1,3-dihydro-benzo[b][1,4]diazepin-2-one] | 1.35 |
| Cc1cc2c(cc1Cl)NC(=O)CC(c1cccc(-c3ccncc3)c1)=N2 [Example 67, 8-Chloro-7-methyl-4-(3-pyridin-4-yl-phenyl)-1,3-dihydro-benzo[b][1,4]diazepin-2-one] | 1.55 |
| Cc1cc(-c2cccc(C3=Nc4cc(C)c(Cl)cc4NC(=O)C3)c2)ccn1 [Example 73, 8-Chloro-7-methyl-4-[3-(2-methyl-pyridin-4-yl)-phenyl]-1,3-dihydro-benzo[b][1,4]diazepin-2-one] | 2.7 |

Test system: not given
Experiment: not given
Settings: not given

| melting point | Compound |
| --- | --- |
| 240 °C | COc1cc2c(cc1C(F)(F)F)NC(=O)CC(c1cccc(-c3ccccn3)c1)=N2 [Example 42, 7-Methoxy-4-(3-pyridin-2-yl-phenyl)-8-trifluoromethyl-1,3-dihydro-benzo[b][1,4]diazepin-2-one] |
| 97 °C | CCCN(C)c1cc2c(cc1C(F)(F)F)NC(=O)CC(c1cccc(-c3ccnc(CO)c3)c1)=N2 [Example 369, 4-[3-(2-Hydroxymethyl-pyridin-4-yl)-phenyl]-7-(methyl-propyl-amino)-8-trifluoromethyl-1,3-dihydro-benzo[b][1,4]diazepin-2-one] |
| 238 °C | Cc1cc2c(cc1C(F)(F)F)N=C(c1cccc(-c3cncnc3)c1)CC(=O)N2 [Example 106, 8-Methyl-4-(3-pyrimidin-5-yl-phenyl)-7-trifluoromethyl-1,3-dihydro-benzo[b][1,4]diazepin-2-one] |
| 217 to 222 °C | O=C1CC(c2cccc(-c3ncccn3)c2)=Nc2ccc(Cl)cc2N1 [Example 339, 8-Chloro-4-(3-pyrimidin-2-yl-phenyl)-1,3-dihydro-benzo[b][1,4]diazepin-2-one] |
| 217 °C | CCOc1cc2c(cc1C(F)(F)F)NC(=O)CC(c1cccc(-c3ccnc(C)c3C)c1)=N2 [Example 146, 4-[3-(2,3-Dimethyl-pyridin-4-yl)-phenyl]-7-ethoxy-8-trifluoromethyl-1,3-dihydro-benzo[b][1,4]diazepin-2-one] |
| 200 to 201 °C | C=Cc1cc2c(cc1C(F)(F)F)NC(=O)CC(c1cccc(-c3ccnc(C)c3)c1)=N2 [Example 244, 4-[3-(2-Methyl-pyridin-4-yl)-phenyl]-8-trifluoromethyl-7-vinyl-1,3-dihydro-benzo[b][1,4]diazepin-2-one] |
| 221 to 223 °C | CN(C)c1cc2c(cc1C(F)(F)F)NC(=O)CC(c1cccc(-c3ncccn3)c1)=N2 [Example 337, 7-Dimethylamino-4-(3-pyrimidin-2-yl-phenyl)-8-trifluoromethyl-1,3-dihydro-benzo[b][1,4]diazepin-2-one] |
| 248 to 250 °C | Cc1cc(-c2cccc(C3=Nc4cc(C)c(C(F)(F)F)cc4NC(=O)C3)c2)nc(N)n1 [Example 315, 4-[3-(2-Amino-6-methyl-pyrimidin-4-yl)-phenyl]-7-methyl-8-trifluoromethyl-1,3-dihydro-benzo[b][1,4]diazepin-2-one] |

More lines, now with the values behind:

| Compound | melting point |
| --- | --- |
| CCc1cnc(C)cc1-c1cccc(C2=Nc3cc(C)c(Cl)cc3NC(=O)C2)c1 [Example 147, 8-Chloro-4-[3-(5-ethyl-2-methyl-pyridin-4-yl)-phenyl]-7-methyl-1,3-dihydro-benzo[b][1,4]diazepin-2-one] | 195 °C |
| Cc1cc(-c2cccc(C3=Nc4cc(C)c(C(F)(F)F)cc4NC(=O)C3)c2)nc(NCCO)n1 [Example 322, 4-{3-[2-(2-Hydroxy-ethylamino)-6-methyl-pyrimidin-4-yl]-phenyl}-7-methyl-8-trifluoromethyl-1,3-dihydro-benzo[b][1,4]diazepin-2-one] | 228 to 230 °C |
| CCOc1cc2c(cc1C(F)(F)F)NC(=O)CC(c1cccc(-c3ccnc(N4CCOCC4)c3)c1)=N2 [Example 385, 7-Ethoxy-4-[3-(2-morpholin-4-yl-pyridin-4-yl)-phenyl]-8-trifluoromethyl-1,3-dihydro-benzo[b][1,4]diazepin-2-one] | 199 to 200 °C |
| Cc1ccc(-c2cccc(C3=Nc4ccc(F)cc4NC(=O)C3)c2)cn1 [Example 11, 8-Fluoro-4-[3-(6-methyl-pyridin-3-yl)-phenyl]-1,3-dihydro-benzo[b][1,4]diazepin-2-one] | 225 to 226 °C |
| Cc1cc2c(cc1C(F)(F)F)NC(=O)CC(c1cccc(-c3ccnc(N4CCCC4)c3)c1)=N2 [Example 389, 7-Methyl-4-[3-(2-pyrrolidin-1-yl-pyridin-4-yl)-phenyl]-8-trifluoromethyl-1,3-dihydro-benzo[b][1,4]diazepin-2-one] | 190 °C |
| Cc1cc2c(cc1Cl)NC(=O)CC(c1cccc(-c3ccccn3)c1)=N2 [Example 45, 8-Chloro-7-methyl-4-(3-pyridin-2-yl-phenyl)-1,3-dihydro-benzo[b][1,4]diazepin-2-one] | 222 °C (dec.) |
| Cc1ncccc1-c1cccc(C2=Nc3ccc(F)cc3NC(=O)C2)c1 [Example 18, 8-Fluoro-4-[3-(2-methyl-pyridin-3-yl)-phenyl]-1,3-dihydro-benzo[b][1,4]diazepin-2-one] | 219 to 220 °C |
| CCOc1cc2c(cc1C(F)(F)F)NC(=O)CC(c1cccc(-c3ccc(CC)nc3)c1)=N2 [Example 190, 7-Ethoxy-4-[3-(6-ethyl-pyridin-3-yl)-phenyl]-8-trifluoromethyl-1,3-dihydro-benzo[b][1,4]diazepin-2-one] | 218 to 219 °C |
| COCc1cc(-c2cccc(C3=Nc4cc(OCC(F)(F)F)c(C(F)(F)F)cc4NC(=O)C3)c2)ccn1 [Example 400, 4-[3-(2-Methoxymethyl-pyridin-4-yl)-phenyl]-7-(2,2,2-trifluoro-ethoxy)-8-trifluoromethyl-1,3-dihydro-benzo[b][1,4]diazepin-2-one] | 225 °C |
| O=C1CC(c2cccc(-c3cccnc3C3CC3)c2)=Nc2ccc(C(F)(F)F)cc2N1 [Example 220, 4-[3-(2-Cyclopropyl-pyridin-3-yl)-phenyl]-8-trifluoromethyl-1,3-dihydro-benzo[b][1,4]diazepin-2-one] | 171 to 173 °C |
| Cc1cc2c(cc1Cl)NC(=O)CC(c1ccnc(-c3cccnc3)c1)=N2 [Example 291, 4-[2,3′]Bipyridinyl-4-yl-8-chloro-7-methyl-1,3-dihydro-benzo[b][1,4]diazepin-2-one] | 229 to 231 °C |
| CC(C)CN(C)c1cc2c(cc1Cl)NC(=O)CC(c1cccc(-c3ccnc(CO)c3)c1)=N2 [Example 368, 8-Chloro-4-[3-(2-hydroxymethyl-pyridin-4-yl)-phenyl]-7-(isobutyl-methyl-amino)-1,3-dihydro-benzo[b][1,4]diazepin-2-one] | 161 °C |
| Cc1cc2c(cc1Cl)NC(=O)CC(c1cccc(-c3ccnc(CO)c3)c1)=N2 [Example 282, 8-Chloro-4-[3-(2-hydroxymethyl-pyridin-4-yl)-phenyl]-7-methyl-1,3-dihydro-benzo[b][1,4]diazepin-2-one] | 234 °C |
| CCOc1ccc2c(c1)N=C(c1cccc(-c3ccncc3)c1)CC(=O)N2 [Example 163, 7-Ethoxy-4-(3-pyridin-4-yl-phenyl)-1,3-dihydro-benzo[b][1,4]diazepin-2-one] | 180 to 185 °C |
| O=C1CC(c2cccc(-c3ccnc(C4CCCC4)c3)c2)=Nc2cc(OCC(F)(F)F)c(C(F)(F)F)cc2N1 [Example 354, 4-[3-(2-Cyclopentyl-pyridin-4-yl)-phenyl]-7-(2,2,2-trifluoro-ethoxy)-8-trifluoromethyl-1,3-dihydro-benzo[b][1,4]diazepin-2-one] | 147 to 148 °C |
| Cc1cc2c(cc1Cl)NC(=O)CC(c1cccc(-c3ccnc(C(F)(F)F)c3)c1)=N2 [Example 264, 8-Chloro-7-methyl-4-[3-(2-trifluoromethyl-pyridin-4-yl)-phenyl]-1,3-dihydro-benzo[b][1,4]diazepin-2-one] | 247 °C |
| COc1ccc(-c2cccc(C3=Nc4ccc(Cl)cc4NC(=O)C3)c2)cn1 [Example 51, 8-Chloro-4-[3-(6-methoxy-pyridin-3-yl)-phenyl]-1,3-dihydro-benzo[b][1,4]diazepin-2-one] | 200 to 205 °C |
| O=C1CC(c2cccc(-c3cnccn3)c2)=Nc2cc(OCC(F)(F)F)c(C(F)(F)F)cc2N1 [Example 112, 4-(3-Pyrazin-2-yl-phenyl)-7-(2,2,2-trifluoro-ethoxy)-8-trifluoromethyl-1,3-dihydro-benzo[b][1,4]diazepin-2-one] | 242 °C |
